Assay results taken from US7338956B2, “Acylamino-substituted heteroaromatic compounds and their use as pharmaceuticals” (Sanofi-Aventis Deutschland GmbH, priority 2002, dated 2008).

Tested on: eNOS promoter
Experiment: Determination of activation of eNOS transcription (eNOS promoter firefly luciferase reporter gene assay)
Type: cell-based
Settings: human endothelial cell line stable transfected with eNOS promoter-luciferase construct; 18 h incubation; EC50 determined graphically; read-out: EC50 values of transcription induction ratio
Procedure: Activation of eNOS transcription was determined as described in detail in Li et al., “Activation of protein kinase C alpha and/or epsilon enhances transcription of the human endothelial nitric oxide synthase gene”, Mol. Pharmacol. 53 (1998) 630 (the content of which is incorporated herein by reference). Briefly, a 3.5 kB long fragment 5′ of the starting codon of the eNOS gene was cloned, sequenced and cloned in firefly luciferase expression plasmids to monitor activation of the eNOS promoter by reporter gene activity. A human endothelial cell line stable transfected and expressing this promoter-reporter construct was used for compound testing. Cells were incubated for 18 h with compounds.
All compounds were dissolved in sterile dimethyl sulfoxide (DMSO). A final concentration of 0.5% DMSO in complete medium was allowed. Induction of reporter gene expression in these cells was measured using a standard luciferase assay system (Promega, Cat. No E150) according to the manufacturer's instructions. Luciferase induction in cells incubated with compounds were compared to those incubated with solvent alone. The ratio of both activities (transcription induction ratio, TIR) was plotted as a function of compound concentration. […] EC50 values of transcription induction ratios as a function of compound concentration were determined graphically.

Compound | EC50 [µM]
O=C(Nc1nc2cc(Cl)ccc2s1)c1ccc(F)cc1 [Example 123, N-(5-Chlorobenzothiazol-2-yl)-4-fluorobenzamide] | 12
O=C(Nc1nc2cccc(Cl)c2s1)c1ccc(F)cc1 [Example 124, N-(7-Chlorobenzothiazol-2-yl)-4-fluorobenzamide] | < 0.1
